Test results from patent US20240294550A1, “8-OXA-3-AZABICYCLO[3.2.1]OCTANE COMPOUNDS OR SALT THEREOF, AND PREPARATION METHOD AND USE THEREOF” (LITTDD MEDICINES LTD, priority 2021, published 2024).
In brackets after ≈: the same amount, converted by molar mass. Counter-ions that a name gives are not always drawn. Like-named read-outs stand apart in the source and are kept apart here. Values belong to the compound of their own block, whether it stands above or below them.

How the values were obtained:
[1] = test system: LOVO cells; experiment: Cell proliferation assay (CellTiter-Glo); type: cell-based; settings: Homo sapiens, 96 hours
Experimental: The cell proliferation inhibition effect of the compound of the invention was tested using CellTiter-Glo™ cell viability assay kit. This kit uses luciferase as the detector. During the luminescence process, the luciferase requires the participation of ATP. CellTiter-Glo™ reagent was added to the cell culture medium, and the luminescence value was measured. The light signal is proportional to the amount of ATP present in the system, and ATP positively correlates with the number of viable cells present, thus the cell proliferation activity is measured.
Cell culture and seeding: LOVO cells in logarithmic growth phase (human colon carcinoma cells) (ATCC CCL-229) were harvested and counted using a platelet counter. Trypan blue exclusion method was used to detect the cell viability to ensure that the cell viability was above 90%. 90 μL of cell suspension (RPMI1640+10% fetal bovine serum) was added to a 96-well transparent flat-bottom black-wall plate (Thermo, 165305) respectively, and the cell concentration was adjusted to 3000/well/90 μl. Cells in the 96-well plate were incubated overnight at 37° C., 5% CO2 with 95% humidity (Thermo, Model 3100 Series).
Firstly, DMSO was used as the solvent to prepare 10 mM mother solution of the test compounds, and then PBS was used to dilute 100 times to prepare a solution of 10 times of final concentration, the highest concentration was 100 μM. 10 μL solution of the test compounds was added to each well of the 96 well plate inoculated with cells, namely the solution was further diluted 10 times to reach the final concentration of 10 μM. Starting from 10 μM, the final concentration of the test compound was 3-fold serially diluted, with 9 concentrations in total with 3 triplicates for each concentration. The 96 well plates with the test compounds and cells were incubated at 37° C., 5% CO2 and 95% humidity for 96 hours, and then CellTiter Glo analysis was performed.
CellTiter-Glo Reagents (CellTiter Glo R Luminescent Cell Viability Assay, Promega, G7572) were melted and the 96-well plates were equilibrated to room temperature for 30 minutes. An equal volume of CellTiter-Glo solution was added to each well, and the cells were lysed by shaking on the fixed orbit shaker for 5 minutes. The assay plates were left at room temperature for 20 minutes to stabilize the luminescence signal, and the luminescence signals were read using the SpectraMax multi-labeled microplate detector (MD, M3).
Data were analyzed using GraphPad Prism 7.0 software, fitted with non-linear S-curve regression to derive the dose-response curves, and IC50 values were calculated therefrom.
Cell survival rate (%)=(LumDrug to be tested−LumCulture medium control)/(LumCell control−LumCulture medium control)×100%

[2] = Metabolic stability in mouse liver microsomes; type: in vitro ADME, CD-1 mice; settings: for half-life at 1 μM: CD-1, 1 μM compound; for microsomal CLint at 1 μM: CD-1, read-out: CLint(mic)
Experimental: (§1) Drug-like Properties: Concepts, Structure Design and Methods: from ADME to Toxicity Optimization. […] Screen. […] After incubation for appropriate time (such as 5, 10, 20, 30 and 60 minutes), samples were collected, and an appropriate termination solution (glacial acetonitrile containing 200 ng/mL tolbutamide and 200 ng/mL labetalol (i.e. acetonitrile at 4° C.)) was added to stop the reaction. Sample treatment (n=1): each appropriate sample was added, vortexed and centrifuged at high speed. The supernatants were collected, and detected the substrate by HPLC-MS/MS. The peak area at the 0 min was set as 100%. The peak areas at other time points were converted to percentages of the remaining amount. The natural logarithms of the percentage of remaining amount at each time point was plotted against the incubation time, and the slope (−k) was calculated. Then, Clint (μL/min/mg) and half-life (T½, min) of the compounds were calculated following the equation: Inherent clearance rate (Clint)=(k*Volume of incubation solution)/Mass of liver microsomes.

[3] = Pharmacokinetic (PK) assay in mice; type: in vivo; settings: CD-1 mice; for half-life / Vd / bioavailability / C0 / AUC(0-t) / Cmax: mouse, plasma; for Vd: read-out: Vss; for bioavailability: Po dose 5 mg/kg vs IV dose 1 mg/kg; for AUC(0-t): read-out: AUC0-24 h
Experimental: The PK of each compound was determined as follows: 6 CD-1 mice (obtained from Shanghai Lingchang Biotechnology Co., Ltd.) were divided into two groups, 3 mice in each group. […] Blood samples were collected from saphenous vein of lower leg in each group at 0, 0.083, 0.25, 0.5, 1, 2, 4, 6, 8 and 24 h after administration. Approximately 40 μL of the blood samples were collected in anticoagulant tubes containing EDTA-K2. Immediately after collection, the tubes were inverted at least 5 times to ensure adequate mixing, and then placed on ice. The blood samples collected at each time point were centrifuged at 4° C., 8000 rpm for 5 minutes to obtain plasma. Another 1.5 mL centrifuge tube was marked with the compound name, animal number, and time point, and the plasma was transferred to this tube. The plasma was stored at −80° C. until analysis.
Compound concentrations in plasma were determined by UPLC-MS/MS method, and the pharmacokinetic parameters were calculated by Phoenix WinNolin 6.4 pharmacokinetic software on the obtained data.

[4] = molecular target: ATR (Homo sapiens (Human), UniProt Q13535); experiment: ATR kinase inhibition assay (HTRF); type: biochemical; settings: p53 substrate, ATP 150 nM
Chain of ATR (Q13535 whole entry): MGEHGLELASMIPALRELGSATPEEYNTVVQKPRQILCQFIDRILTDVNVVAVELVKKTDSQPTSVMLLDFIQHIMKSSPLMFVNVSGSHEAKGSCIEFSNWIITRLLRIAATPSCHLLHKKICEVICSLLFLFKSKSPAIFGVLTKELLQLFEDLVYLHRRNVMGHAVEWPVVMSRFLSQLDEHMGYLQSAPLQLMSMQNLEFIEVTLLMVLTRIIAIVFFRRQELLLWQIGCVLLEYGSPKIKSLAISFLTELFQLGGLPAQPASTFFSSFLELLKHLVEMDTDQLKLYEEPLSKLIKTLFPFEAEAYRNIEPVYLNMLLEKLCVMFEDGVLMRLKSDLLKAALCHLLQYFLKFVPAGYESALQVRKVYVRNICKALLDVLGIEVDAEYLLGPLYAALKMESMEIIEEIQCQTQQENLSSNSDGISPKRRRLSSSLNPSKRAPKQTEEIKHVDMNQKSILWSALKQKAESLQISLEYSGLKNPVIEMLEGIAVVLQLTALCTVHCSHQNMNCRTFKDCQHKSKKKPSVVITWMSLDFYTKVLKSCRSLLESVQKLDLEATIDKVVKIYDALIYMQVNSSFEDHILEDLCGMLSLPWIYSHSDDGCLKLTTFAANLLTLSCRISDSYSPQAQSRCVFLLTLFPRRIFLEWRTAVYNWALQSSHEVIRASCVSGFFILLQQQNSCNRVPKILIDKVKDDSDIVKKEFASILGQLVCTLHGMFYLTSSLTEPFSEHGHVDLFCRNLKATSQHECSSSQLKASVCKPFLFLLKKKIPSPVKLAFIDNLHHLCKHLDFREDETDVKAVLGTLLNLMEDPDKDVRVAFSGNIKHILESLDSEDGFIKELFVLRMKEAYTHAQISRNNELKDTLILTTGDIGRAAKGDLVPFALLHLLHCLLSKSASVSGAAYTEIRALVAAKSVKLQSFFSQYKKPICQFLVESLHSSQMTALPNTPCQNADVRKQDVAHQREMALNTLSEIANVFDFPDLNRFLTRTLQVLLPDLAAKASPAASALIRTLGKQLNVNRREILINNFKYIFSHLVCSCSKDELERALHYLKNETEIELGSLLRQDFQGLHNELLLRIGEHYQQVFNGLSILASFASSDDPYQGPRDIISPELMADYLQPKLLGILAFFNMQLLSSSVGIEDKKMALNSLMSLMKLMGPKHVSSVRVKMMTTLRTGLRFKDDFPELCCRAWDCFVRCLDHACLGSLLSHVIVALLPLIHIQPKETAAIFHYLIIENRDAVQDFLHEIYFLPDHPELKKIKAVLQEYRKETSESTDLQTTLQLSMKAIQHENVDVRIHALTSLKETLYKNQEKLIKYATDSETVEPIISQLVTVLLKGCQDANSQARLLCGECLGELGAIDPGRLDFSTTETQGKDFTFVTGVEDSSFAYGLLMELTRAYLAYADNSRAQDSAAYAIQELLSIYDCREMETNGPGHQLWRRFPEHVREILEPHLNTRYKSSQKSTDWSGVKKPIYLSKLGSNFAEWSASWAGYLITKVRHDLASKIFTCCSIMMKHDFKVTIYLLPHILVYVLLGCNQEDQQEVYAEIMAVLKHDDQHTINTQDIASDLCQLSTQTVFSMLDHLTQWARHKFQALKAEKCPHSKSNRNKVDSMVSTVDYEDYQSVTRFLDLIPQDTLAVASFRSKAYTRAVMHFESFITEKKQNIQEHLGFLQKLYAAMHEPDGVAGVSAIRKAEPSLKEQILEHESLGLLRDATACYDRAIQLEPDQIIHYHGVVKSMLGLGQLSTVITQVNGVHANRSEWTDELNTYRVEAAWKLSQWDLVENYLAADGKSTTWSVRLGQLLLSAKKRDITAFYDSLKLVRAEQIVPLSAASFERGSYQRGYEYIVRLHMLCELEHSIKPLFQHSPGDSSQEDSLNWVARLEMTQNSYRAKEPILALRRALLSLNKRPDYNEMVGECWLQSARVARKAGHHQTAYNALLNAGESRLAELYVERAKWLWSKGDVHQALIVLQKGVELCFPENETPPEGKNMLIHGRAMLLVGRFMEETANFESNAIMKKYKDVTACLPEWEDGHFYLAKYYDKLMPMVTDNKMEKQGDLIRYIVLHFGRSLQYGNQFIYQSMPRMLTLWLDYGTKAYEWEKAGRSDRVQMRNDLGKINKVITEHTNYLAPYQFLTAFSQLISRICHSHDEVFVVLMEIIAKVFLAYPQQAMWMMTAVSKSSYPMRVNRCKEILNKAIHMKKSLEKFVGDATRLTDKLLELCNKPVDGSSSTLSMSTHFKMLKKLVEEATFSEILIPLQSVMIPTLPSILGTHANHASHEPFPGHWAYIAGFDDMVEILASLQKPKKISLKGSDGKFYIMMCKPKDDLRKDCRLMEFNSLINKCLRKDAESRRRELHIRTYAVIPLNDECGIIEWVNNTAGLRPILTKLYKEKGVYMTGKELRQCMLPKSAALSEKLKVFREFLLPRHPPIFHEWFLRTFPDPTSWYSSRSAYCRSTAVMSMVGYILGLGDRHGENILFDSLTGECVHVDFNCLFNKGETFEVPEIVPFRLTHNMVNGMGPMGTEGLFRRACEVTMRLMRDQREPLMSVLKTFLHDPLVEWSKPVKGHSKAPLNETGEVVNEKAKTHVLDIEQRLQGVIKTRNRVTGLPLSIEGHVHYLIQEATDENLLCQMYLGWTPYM
Chain of ATR (Q8WXE1 whole entry partner): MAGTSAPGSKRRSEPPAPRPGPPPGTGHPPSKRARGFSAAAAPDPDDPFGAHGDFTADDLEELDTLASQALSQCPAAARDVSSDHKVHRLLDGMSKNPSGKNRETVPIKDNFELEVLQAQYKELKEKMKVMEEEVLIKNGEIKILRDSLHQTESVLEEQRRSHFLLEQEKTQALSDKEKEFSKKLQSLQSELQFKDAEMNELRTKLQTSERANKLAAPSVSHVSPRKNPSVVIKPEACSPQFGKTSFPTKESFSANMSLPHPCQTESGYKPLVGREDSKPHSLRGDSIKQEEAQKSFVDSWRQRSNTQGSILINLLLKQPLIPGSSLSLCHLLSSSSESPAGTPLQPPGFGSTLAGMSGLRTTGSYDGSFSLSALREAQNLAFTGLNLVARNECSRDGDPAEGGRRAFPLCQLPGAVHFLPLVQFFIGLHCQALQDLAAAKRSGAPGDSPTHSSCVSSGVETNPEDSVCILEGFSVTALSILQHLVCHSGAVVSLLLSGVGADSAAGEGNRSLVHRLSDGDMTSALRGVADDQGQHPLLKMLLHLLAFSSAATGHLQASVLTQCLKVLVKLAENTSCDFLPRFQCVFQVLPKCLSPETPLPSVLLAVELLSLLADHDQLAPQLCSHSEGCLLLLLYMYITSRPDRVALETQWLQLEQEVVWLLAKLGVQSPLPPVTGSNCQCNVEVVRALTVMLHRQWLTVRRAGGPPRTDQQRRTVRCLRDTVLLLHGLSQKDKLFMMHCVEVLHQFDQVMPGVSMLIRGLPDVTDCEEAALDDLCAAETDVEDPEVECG
Experimental: This experiment adopted Homogeneous time-resolved fluorescence technology (HTRF®) of Cisbio Company for assay.
Experiment method: buffers were prepared as follows:
Preparation of solutions of the test compounds: The example compounds shown in the table below were prepared into solutions using DMSO as solvent, the stock solution typically being 10 mM. The maximum starting concentration in this experiment was 3 μM, DMSO 3-fold serial dilutions for concentrations, the serially diluted solution was added to each well of the corresponding 384-well plate (geriner bio-one, Cat #784075) to give final concentrations of 3000, 1000, 333, 111, 37, 12.3, 4.12, 1.37, 0.457, 0.152 nM, respectively, and the corresponding amount of DMSO was added to the additional wells to be used as negative or positive control wells, respectively.
The enzyme and substrate were separately dissolved and diluted in two tubes with the buffer prepared above at the following concentrations:
5 μL of the ATR protein solution from tube A was added to the compound-containing wells and the negative control wells in the assay plates using an electric multichannel pipettor, and the same volume of the prepared buffer (medium only, no enzyme) was added to the positive control wells. The plates were centrifuged for one minute at 1000 rpm, and then placed in an incubator at 25° C. for 15 minutes. 5 μL of the substrate mix solution from tube B was added to the positive control well, negative control well and the compound-containing well of the assay plates in the same manner, centrifuged and incubated at 25° C. for 90 minutes.
During the reaction, after ATR phosphorylated the substrate p53, two antibodies were added. Among them, anti-phospho-p53-Eu, as an energy donor, can specifically bind to the phosphorylation site of p53, while anti-GST-d2, as an energy receptor, can specifically bind to the GST-tagged p53. Upon excitation by a laser with certain wavelength (the excitation wavelength in this experiment is 340 nm), the energy donor can emit emission light of 615 nm, and when the energy donor and the energy receptor are close enough in space (that is, two antibodies are connected to p53 at the same time), energy transfer can occur between the energy donor and the energy receptor, so that the energy receptor can emit emission light of 665 nm. The two emission lights were detected by a plate reader, and the ratio of the signals at 665 nm and 615 nm was calculated. The IC50 of the samples tested can be obtained by plotting and calculation.
10 μL per well of the detection solution was added to the positive control, negative control and compound wells of the assay plate using an electric multichannel pipette, centrifuged and incubated overnight at 4° C., and read with the plate reader Envision 2104.
Compound inhibition rate was calculated using interpolation. The mean values of the positive and negative controls were calculated respectively, and the following formula was used to calculate the inhibition rates of the compounds:
Inhibition rate Minimum response+(Compound concentration ^Curve slope)*(Maximum response−Minimum response)/(Compound concentration^Curve slope+Half inhibition concentration ^Curve slope)
The IC50 value of each compound to enzyme activity was obtained.

[5] = Metabolic stability in human liver microsomes; type: in vitro ADME; settings: for half-life at 1 μM: 1 μM compound; for microsomal CLint at 1 μM: read-out: CLint(mic)
Experimental: as §1

[6] = Equilibrium solubility in FaSSIF; type: physicochemical; settings: thermodynamic from solid; FaSSIF pH 6.5, shaken 24 hours
Experimental: The compound powder was weighed into a volumetric flask, 450 μL of pH 6.5 FaSSIF solution was added to obtain a supersaturated suspension, the samples were vortexed for at least 2 minutes, and the volumetric flasks were shaken on a vibrating screen at 800 rpm for 24 hours, and then centrifuged at 4000 rpm for 20 minutes. The compressed filtrate was added to a HPLC system, and the concentrations were calculated by a standard curve method.

SMILES: C[C@@H]1COCCN1c1cc(N2CC3CCC(C2)O3)nc2c1cnn2-c1cc[nH]n1 [Example 5, 3-(4-((R)-3-methylmorpholino)-1-(1H-pyrazol-3-yl)-1H-pyrazolo[3,4-b]pyridin-6-yl)-8-oxa-3-azabicyclo[3.2.1]octane]
- IC50 [1]: 384 nM
- half-life at 1 μM [2]: 1.12 h
- microsomal CLint at 1 μM [2]: 20.5 µL/min/mg
- Remain % (T = 60 min) [2]: 56.6%
- CL_obs ([3]; IV dose 1 mg/kg): 6.15 mL/min/kg
- half-life ([3]; IV dose 1 mg/kg): 3.45 h
- Vd ([3]; IV dose 1 mg/kg): 0.75 L/kg
- half-life ([3]; Po dose 5 mg/kg): 2.58 h
- bioavailability [3]: 69%
- C0 ([3]; IV dose 1 mg/kg): 2180 ng/mL
- AUC(0-t) ([3]; IV dose 1 mg/kg): 2700 ng·h/mL
- Cmax ([3]; Po dose 5 mg/kg): 3020 ng/mL
- AUC(0-t) ([3]; Po dose 5 mg/kg): 9330 ng·h/mL
- IC50 [4]: 8.2 nM
- half-life at 1 μM [5]: > 2.42 h
- Remain % (T = 60 min) [5]: 77.1%
- microsomal CLint at 1 μM [5]: < 9.6 µL/min/mg

SMILES: c1cc(-c2ncc3c(N4CC5CCC(C4)O5)cc(N4CC5CCC(C4)O5)nn23)n[nH]1 [Example 6, 3-(4-(8-oxa-3-azabicyclo[3.2.1]octan-3-yl)-7-(1H-pyrazol-3-yl)imidazo[1,5-b]pyridazin-2-yl)-8-oxa-3-azabicyclo[3.2.1]octane]
- IC50 [1]: 97 nM
- half-life at 1 μM [2]: 0.56 h
- microsomal CLint at 1 μM [2]: 41.3 µL/min/mg
- Remain % (T = 60 min) [2]: 30.7%
- IC50 [4]: 13.2 nM
- half-life at 1 μM [5]: > 2.42 h
- Remain % (T = 60 min) [5]: 74.8%
- microsomal CLint at 1 μM [5]: < 9.6 µL/min/mg

SMILES: Cn1nccc1-c1cc(N2CC3CCC(C2)O3)nc2c(-c3cc[nH]n3)cnn12 [Example 26, 3-(7-(1-methyl-1H-pyrazol-5-yl)-3-(1H-pyrazol-3-yl)pyrazolo[1,5-a]pyrimidin-5-yl)-8-oxa-3-azabicyclo[3.2.1]octane]
- IC50 [1]: 1270 nM
- IC50 [4]: 57.7 nM

SMILES: FC1(F)CCN(c2cc(N3CC4CCC(C3)O4)nn3c(-c4cc[nH]n4)ncc23)CC1 [Example 14, 3-(4-(4,4-difluoropiperidin-1-yl)-7-(1H-pyrazol-3-yl)imidazo[1,5-b]pyridazin-2-yl)-8-oxa-3-azabicyclo[3.2.1]octane]
- IC50 [1]: 419 nM
- IC50 [4]: 8 nM

Further lines, results first:

- IC50 [1]: 592 nM
- IC50 [4]: 79.2 nM
SMILES: C[C@@H]1CNCCN1c1cc(N2CC3CCC(C2)O3)nn2c(-c3cc[nH]n3)ncc12 [Example 9, 3-(4-((R)-2-methylpiperazin-1-yl)-7-(1H-pyrazol-3-yl)imidazo[1,5-b]pyridazin-2-yl)-8-oxa-3-azabicyclo[3.2.1]octane formate]

- IC50 [1]: 39 nM
- IC50 [4]: 1.4 nM
SMILES: CC1(C)COCCN1c1cc(N2CC3CCC(C2)O3)nn2c(-c3cc[nH]n3)ncc12 [Example 20, 3-(4-(3,3-dimethylmorpholino)-7-(1H-pyrazol-3-yl)imidazo[1,5-b]pyridazin-2-yl)-8-oxa-3-azabicyclo[3.2.1]octane]

- IC50 [1]: 186 nM
- IC50 [4]: 22 nM
SMILES: C[C@H]1COCCN1c1cc(N2CC3CCC(C2)O3)nn2c(-c3cc[nH]n3)ncc12 [Example 15, 3-(4-((S)-3-methylmorpholino)-7-(1H-pyrazol-3-yl)imidazo[1,5-b]pyridazin-2-yl)-8-oxa-3-azabicyclo[3.2.1]octane]

- IC50 [1]: 158 nM
- IC50 [4]: 3.9 nM
SMILES: C[C@@H]1CC(F)(F)CCN1c1cc(N2CC3CCC(C2)O3)nn2c(-c3cc[nH]n3)ncc12 [Example 31, 3-(4-((R)-4,4-difluoro-2-methylpiperidin-1-yl)-7-(1H-pyrazol-3-yl)imidazo[1,5-b]pyridazin-2-yl)-8-oxa-3-azabicyclo[3.2.1]octane]

- IC50 [1]: 67 nM
- solubility at 24 h [6]: 1140 µg/mL (≈ 2890 µM)
- CL_obs ([3]; IV dose 1 mg/kg): 10.0 mL/min/kg
- half-life ([3]; IV dose 1 mg/kg): 7.56 h
- Vd ([3]; IV dose 1 mg/kg): 1.03 L/kg
- half-life ([3]; Po dose 5 mg/kg): 3.99 h
- bioavailability [3]: 77.5%
- C0 ([3]; IV dose 1 mg/kg): 2860 ng/mL
- AUC(0-t) ([3]; IV dose 1 mg/kg): 1650 ng·h/mL
- Cmax ([3]; Po dose 5 mg/kg): 3150 ng/mL
- AUC(0-t) ([3]; Po dose 5 mg/kg): 6460 ng·h/mL
- IC50 [4]: 5.9 nM
SMILES: C[C@@H]1COCCN1c1cc(N2CC3CCC(C2)O3)nn2c(-c3cc[nH]n3)ncc12 [Example 3, 3-(4-((R)-3-methylmorpholino)-7-(1H-pyrazol-3-yl)imidazo[1,5-b]pyridazin-2-yl)-8-oxa-3-azabicyclo[3.2.1]octane]
